Results on four compounds are retold here after patent US20030201224A1, “Microbial consortium for the biodegradation of dithiocarbamates” (priority 2002, published 2003).

Where two headings read alike, the source gives them in different places.

The subject of assay [1] is consortium. The assay is described as follows: Degradation of other N-alkyl dithiocarbamates by the consortium (1000 ml bioreactor). The note with it: pH 7.2, 20-27° C.
Protocol: A 1000 ml bioreactor containing the synthetic medium (described above) has been inoculated with the consortium density of approximately 1.1×10^7 ml. The initial pH value was 7.2 and the temperature varied between 20-27° C. Dithiocarbamate concentration was measured spectrophometrically by complexing with cupric acetate and measuring the absorbance at 430 nm.
Assay [2] concerns microbial consortium. As to conditions: soil. As for the experimental part:
One soil environment was inoculated with approximately 1.2×10^7 consortium members/g soil while the other remained uninoculated. Nitrogen and phosphorus was added to both systems. The initial soil pH was 6.8 and the temperature varied from 18° C. to 27° C. Water was added to maintain the dry weight at about 30%. Each soil system was mixed weekly to provide aeration.

Assay [3] concerns consortium. The note with it: within 72 hour; waste wash-water about 1100 ppm SDM and dilution at 500 ppm, pH 7.8; 20% inoculum of 72 h consortium. As for the experimental part: The sample, and a dilution of it at 500 ppm and pH 7.8, was inoculated with a 20% (VN) amount of a 72 h consortium. A control without inoculation was included.

`CCCN(CCC)C(=S)[S-].[Na+]` [DiPropyl Dithiocarbamate, Sodium Dipropyl dithiocarbamates]: the “% degradation (percent loss over the abiotic Control)” value is listed as 3.99% in assay [1] (time 0 h); 3.87% in assay [1] (time 0.5 h); 4.21% in assay [1] (time 1.5 h); 3.56% in assay [1] (time 4 h); 3.49% in assay [1] (time 5 h); 4.37% in assay [1] (time 7 h). The “% degradation (percent loss over the abiotic Control)” value in assay [1] (time 27 h) came to 7.82%; in assay [1] (time 51 h), 9.43%; in assay [1] (time 73 h), 11.24%; in assay [1] (time 96 h), 14.56%.

As to `CCCCN(CCCC)C(=S)[S-].[Na+]` [Dibutyl Dithiocarbamate, Sodium Dibutyl dithiocarbamates], the “% degradation (percent loss over the abiotic Control)” value stood at 4.44% in assay [1] (time 0 h); 4.70% in assay [1] (time 0.5 h); 4.10% in assay [1] (time 1.5 h); 3.81% in assay [1] (time 4 h); 3.98% in assay [1] (time 5 h); 4.12% in assay [1] (time 7 h). The “% degradation (percent loss over the abiotic Control)” value worked out at 6.11% in assay [1] (time 27 h), 6.66% in assay [1] (time 51 h), 7.93% in assay [1] (time 73 h) and 9.46% in assay [1] (time 96 h).

With `CCN(CC)C(=S)S` [Diethyl Dithiocarbamate, sodium diethyl dithiocarbamate], the “% degradation (percent loss over the abiotic Control)” value is listed as 3.28% in assay [1] (time 0 h); 2.80% in assay [1] (time 0.5 h); 8.78% in assay [1] (time 1.5 h); 8.18% in assay [1] (time 4 h); 13.29% in assay [1] (time 5 h); 15.01% in assay [1] (time 7 h). Further, the “% degradation (percent loss over the abiotic Control)” value is given as 18.00% in assay [1] (time 27 h), 21.00% in assay [1] (time 51 h), 23.00% in assay [1] (time 73 h) and 25.07% in assay [1] (time 96 h).

As for `CN(C)C(=S)[S-].[Na+]` [SDM, Sodium dimethyl dithiocarbamate], the “PERCENT degradation of SDM” value in assay [2] (100 mg SDM per kg soil, 1 d) turned out to be 1.6%; in assay [2] (100 mg SDM per kg soil, 3 d), 18.3%; in assay [2] (100 mg SDM per kg soil, 7 d), 50.2%; in assay [2] (500 mg SDM per kg soil, 1 d), 6.2%; in assay [2] (500 mg SDM per kg soil, 3 d) it was 22.6%; in assay [2] (500 mg SDM per kg soil, 7 d) it was 63%. In addition, the “PERCENT degradation of SDM” value stood at 4.8% in assay [2] (1000 mg SDM per kg soil, 1 d); 16.3% in assay [2] (1000 mg SDM per kg soil, 3 d); 39.7% in assay [2] (1000 mg SDM per kg soil, 7 d); 48% in assay [2] (1000 mg SDM per kg soil, 10 d); 72% in assay [2] (1000 mg SDM per kg soil, 14 d); 76% in assay [2] (1000 mg SDM per kg soil, 20 d). The “PERCENT degradation of SDM” value in assay [2] (2000 mg SDM per kg soil, 1 d) is listed as 3.9%; in assay [2] (2000 mg SDM per kg soil, 3 d), 12.4%; in assay [2] (2000 mg SDM per kg soil, 7 d), 26.7%; in assay [2] (2000 mg SDM per kg soil, 10 d) it was 32.1%; in assay [2] (2000 mg SDM per kg soil, 14 d), 47.6%; in assay [2] (2000 mg SDM per kg soil, 20 d), 54%. Besides, the “PERCENT degradation of SDM” value in assay [2] (2000 mg SDM per kg soil, 28 d) came out at 58%; in assay [2] (5000 mg SDM per kg soil, 1 d), 5.2%; in assay [2] (5000 mg SDM per kg soil, 3 d), 3.1%; in assay [2] (5000 mg SDM per kg soil, 7 d), 2.3%; in assay [2] (5000 mg SDM per kg soil, 10 d), 1.8%; in assay [2] (5000 mg SDM per kg soil, 14 d) it was 3.6%. Moreover, the “PERCENT degradation of SDM” value in assay [2] (5000 mg SDM per kg soil, 20 d) is listed as 1.8%; in assay [2] (5000 mg SDM per kg soil, 28 d) it was 3.2%. Besides, the “% degradation (percent loss over the abiotic Control)” value was found to be 8.1% in assay [1] (time 0.5 h); 9.5% in assay [1] (time 1.5 h); 12.3% in assay [1] (time 4 h); 12.1% in assay [1] (time 5 h); 27.1% in assay [1] (time 7 h); 61.4% in assay [1] (time 27 h). The “% degradation (percent loss over the abiotic Control)” value in assay [1] (time 51 h) came to 77.8%; in assay [1] (time 73 h), 88.7%; in assay [1] (time 96 h), 97.5%. Moreover, the “SDM degraded by the consortium” value in assay [3] was roughly 100%.
